The assay addresses T1, human ADRA2B receptor (Homo sapiens, UniProt P18089).
T1 construct: expressed in transfected cells
T1 sequence (P18089 1-450): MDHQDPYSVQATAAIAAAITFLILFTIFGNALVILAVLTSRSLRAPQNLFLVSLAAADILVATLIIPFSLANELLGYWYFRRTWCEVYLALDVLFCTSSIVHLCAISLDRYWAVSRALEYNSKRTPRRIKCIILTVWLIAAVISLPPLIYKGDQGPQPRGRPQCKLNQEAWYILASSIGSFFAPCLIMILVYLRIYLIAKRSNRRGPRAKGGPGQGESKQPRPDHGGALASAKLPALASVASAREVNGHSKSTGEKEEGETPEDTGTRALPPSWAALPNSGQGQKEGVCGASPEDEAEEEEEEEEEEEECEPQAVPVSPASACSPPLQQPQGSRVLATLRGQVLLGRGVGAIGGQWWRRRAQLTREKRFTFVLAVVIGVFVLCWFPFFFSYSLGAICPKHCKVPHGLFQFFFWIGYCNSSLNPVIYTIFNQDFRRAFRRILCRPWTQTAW
Nature of the assay: ADRA2B arrestin agonist assay. It is filed as cell-based. As to conditions: CHO-K1 cells stably expressing human ADRA2B; read-out: Beta-Arrestin - Human Alpha2B EC50. The essentials:
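CHO-K1 cells stably expressing human ADRA2B, thawed from frozen stock and plated overnight, were treated with agonist for 2 h at 37 °C. Arrestin recruitment detected by luminescence after 2 h with detection reagents at room temperature.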

Some results are limits rather than exact numbers.

For the molecule `Cc1nc(C[C@@H](c2c[nH]cn2)c2cccc(C)c2C)c(C)o1` [Compound 379, 4-[(R)-2-(4-imidazolyl)-2-(2,3-xylyl)ethyl]-2,5-dimethyl-1,3-oxazole], the EC50 (usually the concentration at which the effect is half-maximal) was less than 10 nM.

Turning to `Cc1nc(C[C@H](c2c[nH]cn2)c2cccc(C)c2C)c(C)o1` [Compound 380, 4-[(S)-2-(4-imidazolyl)-2-(2,3-xylyl)ethyl]-2,5-dimethyl-1,3-oxazole], the EC50 is greater than 500 nM.

With `COc1c(C)cccc1[C@@H](Cc1ccnn1C)c1c[nH]cn1` [Compound 381, 5-[(R)-2-(4-imidazolyl)-2-(2-methoxy-3-tolyl)ethyl]-1-methylpyrazole], the EC50 is greater than 500 nM.

As for `COc1c(C)cccc1[C@H](Cc1ccnn1C)c1c[nH]cn1` [Compound 382, 5-[(S)-2-(4-imidazolyl)-2-(2-methoxy-3-tolyl)ethyl]-1-methylpyrazole], the EC50 was 10 to 50 nM.

Regarding `c1cc2c(c([C@@H](Cc3cocn3)c3c[nH]cn3)c1)OCCO2` [Compound 383, 4-[(R)-2-(2,3-dihydro-1,4-benzodioxin-5-yl)-2-(4-imidazolyl)ethyl] 1,3-oxazole], the concentration giving a half-maximal response (EC50) was greater than 500 nM.

As for `c1cc2c(c([C@H](Cc3cocn3)c3c[nH]cn3)c1)OCCO2` [Compound 384, 4-[(S)-2-(2,3-dihydro-1,4-benzodioxin-5-yl)-2-(4-imidazolyl)ethyl]-1,3-oxazole], the EC50 lay in the range of 10 to 50 nM.

Consider `Cc1cnc(CC(c2c[nH]cn2)c2cccc(C)c2C)s1` (stereo not shown) [Compound 385, 2-[2-(4-imidazolyl)-2-(2,3-xylyl)ethyl]-5-methyl-1,3-thiazole], for which the EC50 was less than 10 nM.

Take `Cc1cccc(C(Cc2c(C)ccnc2C)c2c[nH]cn2)c1C` (stereo not shown) [Compound 386, 4-[2-(2,4-dimethyl-3-pyridyl)-1-(2,3-xylyl)ethyl]imidazole]: the concentration giving a half-maximal response (EC50) was greater than 500 nM.

`CN1CCc2cccc(C(Cc3cn(C)nn3)c3c[nH]cn3)c21` (stereo not shown) [Compound 387, 4-[2-(4-imidazolyl)-2-(1-methyl-7-indolinyl)ethyl]-1-methyl-1H-1,2,3-triazole]: the 50% effective concentration (EC50) was 50 to 500 nM.

Regarding `COc1c(C)cccc1C(Cc1cocn1)c1c[nH]cn1` (stereo not shown) [Compound 388, 4-[2-(4-imidazolyl)-2-(2-methoxy-3-tolyl)ethyl]-1,3-oxazole-formic acid (1/1)], the 50% effective concentration (EC50) is greater than 500 nM.

Regarding `COc1c(C)cccc1C(Cc1cccc(C)n1)c1c[nH]cn1` (stereo not shown) [Compound 389, 4-[1-(2-methoxy-3-tolyl)-2-(6-methyl-2-pyridyl)ethyl]imida-zole-formic acid (1/1)], the EC50 is 50 to 500 nM.

Take `c1cc2c(c(C(Cc3cnco3)c3c[nH]cn3)c1)OCC2` (stereo not shown) [Compound 390, 5-[2-(2,3-dihydro-1-benzofuran-7-yl)-2-(4-imidazolyl)ethyl] 1,3-oxazole]: the concentration giving a half-maximal response (EC50) was 10 to 50 nM.

On to `Cc1cccc(C(Cc2cnsc2)c2c[nH]cn2)c1C` (stereo not shown) [Compound 391, 4-[2-(4-imidazolyl)-2-(2,3-xylyl)ethyl]isothiazole], for which the 50% effective concentration (EC50) was less than 10 nM.

Take `Fc1c(Cl)cccc1C(Cc1cnco1)c1c[nH]cn1` (stereo not shown) [Compound 392, 5-[2-(3-chloro-2-fluorophenyl)-2-(4-imidazolyl)ethyl]-1,3-oxazole]: the concentration for a half-maximal effect (EC50) is 10 to 50 nM.

In the case of `COc1cc(Cl)cc(CC(c2c[nH]cn2)c2cccc3c2OCC3)n1` (stereo not shown) [Compound 393, 4-[2-(4-chloro-6-methoxy-2-pyridyl)-1-(2,3-dihydro-1-benzofuran-7-yl)ethyl]imidazole], the EC50 lay within 10 to 50 nM.

Turning to `Cc1cccc(C(Cc2ccncc2F)c2c[nH]cn2)c1C` (stereo not shown) [Compound 394, 4-[2-(3-fluoro-4-pyridyl)-1-(2,3-xylyl)ethyl]imidazole], the 50% effective concentration (EC50) was less than 10 nM.

Regarding `Cc1cc(CC(c2c[nH]cn2)c2cccc(C)c2C)c(Cl)cn1` (stereo not shown) [Compound 395, 4-[2-(5-chloro-2-methyl-4-pyridyl)-1-(2,3-xylyl)ethyl]imidazole], the EC50 is less than 10 nM.

For `Cc1cccc(C(Cc2ccncc2Cl)c2c[nH]cn2)c1C` (stereo not shown) [Compound 396, 4-[2-(3-chloro-4-pyridyl)-1-(2,3-xylyl)ethyl]imidazole], the concentration for a half-maximal effect (EC50) is less than 10 nM.

For the molecule `CCc1cccc(C(Cc2ccn3ccnc3c2)c2c[nH]cn2)c1O` (stereo not shown) [Compound 397, 2-[2-(1,3a-diaza-6-indenyl)-1-(4-imidazolyl)ethyl]-6-ethylphenol], the EC50 was greater than 500 nM.

With `c1cc2c(c(C(Cc3ccn4ccnc4c3)c3c[nH]cn3)c1)OCC2` (stereo not shown) [Compound 398, 4-[2-(1,3a-diaza-6-indenyl)-1-(2,3-dihydro-1-benzofuran-7-yl)ethyl]imidazole], the concentration for a half-maximal effect (EC50) is less than 10 nM.

In the case of `Cc1cccc(C(Cc2ccnn2C)c2c[nH]cn2)c1Cl` (stereo not shown) [Compound 399, 5-[2-(2-chloro-3-tolyl)-2-(4-imidazolyl)ethyl]-1-methylpyrazole], the 50% effective concentration (EC50) was less than 10 nM.

Regarding `c1cc2c(c(C(Cc3cccn4ccnc34)c3c[nH]cn3)c1)OCC2` (stereo not shown) [Compound 400, 4-[2-(1,3a-diaza-7-indenyl)-1-(2,3-dihydro-1-benzofuran-7-yl)ethyl]imidazole], the EC50 is greater than 500 nM.

Take `Cc1cccc(C(Cc2ccc3nccn3c2)c2c[nH]cn2)c1C` (stereo not shown) [Compound 401, 4-[2-(1,3a-diaza-5-indenyl)-1-(2,3-xylyl)ethyl]imidazole]: the EC50 is less than 10 nM.

For `Cc1cccc(C(Cc2cccn3ccnc23)c2c[nH]cn2)c1C` (stereo not shown) [Compound 402, 4-[2-(1,3a-diaza-7-indenyl)-1-(2,3-xylyl)ethyl]imidazole], the half-maximal effective concentration (EC50) lay in the range of 10 to 50 nM.

As to `Cc1cccc(C(Cc2ccn3ccnc3c2)c2c[nH]cn2)c1C` (stereo not shown) [Compound 403, 4-[2-(1,3a-diaza-6-indenyl)-1-(2,3-xylyl)ethyl]imidazole], the concentration giving a half-maximal response (EC50) lay within 10 to 50 nM.

Regarding `Cc1cccc(C(Cc2cn(C3CC3)nn2)c2c[nH]cn2)c1C` (stereo not shown) [Compound 404, 1-cyclopropyl-4-[2-(4-imi-dazolyl)-2-(2,3-xylyl)ethyl]-1H-1,2,3-triazole], the EC50 was less than 10 nM.

Turning to `Cc1cccc(C(Cc2ccnc(C3CCO3)n2)c2c[nH]cn2)c1C` (stereo not shown) [Compound 405, 4-[2-(2,3-dimethylphenyl)-2-(1H-imidazol-4-yl)ethyl]-2-(oxetan-2-yl)pyrimidine], the EC50 is less than 10 nM.

Regarding `Cc1cccc(C(Cn2cccn2)c2c[nH]cn2)c1C` (stereo not shown) [Compound 406, 1-[2-(4-imi-dazolyl)-2-(2,3-xylyl)ethyl]pyra-zole], the half-maximal effective concentration (EC50) is 10 to 50 nM.

Source of the values: patent US20260042769A1, “TRIARYL AGONISTS OF ALPHA-2 ADRENERGIC RECEPTORS” (ALCEPTOR THERAPEUTICS, INC., priority 2023, published 2026).
